Measured values reported in US11524962B2, “Substituted pyrrolo[2,3-d]pyrimidines as inhibitors of protein arginine methyl transferase 5 (PRMT5)” (PRELUDE THERAPEUTICS, INCORPORATED, priority 2017, dated 2022).

Tested on: U87MG-luc3 human glioblastoma cells
Assay: Tumor growth inhibition in U87 MG mouse orthotopic model
Type: in vivo
Conditions: for tumor growth inhibition: day 29
Description: U87MG-luc3 human glioblastoma cells were grown to mid-log phase in Eagle's Minimum Essential Medium containing 10% fetal bovine serum, 2 mM glutamine, 1× non-essential amino acids, 0.075% sodium bicarbonate, 1 mM sodium pyruvate, 100 units/mL sodium penicillin G, g/mL gentamicin, and 100 μg/mL streptomycin sulfate. The tumor cells were cultured in tissue culture flasks in a humidified incubator at 37° C., in an atmosphere of 5% CO2 and 95% air. Cells were cultured in 2 μg/mL puromycin until the second to last passage before implant, grown to mid-log phase and harvested. Post-implant verification of luciferase-expressing cells was performed by maintaining cells in culture for three passages after implant to ensure stable doubling time. Limiting dilution was used to verify and quantitate light production in the presence of luciferin. Cells were harvested at mid-log phase and resuspended at a concentration of 1×10^8 cells/mL in PBS. Each mouse (Female athymic nude mice (Crl:NU(NCr)-Foxn1nu, Charles River)) received an intracranial injection of 1×10^6 U87MG-luc3 cells (0.01 mL cell suspension) and tumor growth was monitored through whole body bioluminescent imaging. Four days post cell implant, designated as Day 1 of the study, the animals were sorted into five groups based on flux values before treatment starts. Ex. 11 or vehicle (0.5% Na CMC+0.5% Tween80) was administered orally BID. Ex. 11 was dosed at 10, 20 mg/kg BID and 50 mg/kg BID, 7-day on/7-day off for 22 days. Animals were continued to be observed to obtain overall survival data.
In Vivo bioluminescence images (dorsal) were captured to monitor tumor progression. Luciferase activity was measured in live animals using IVIS SpectrumCT (Perkin Elmer, Mass.) equipped with a CCD camera (cooled at −90° C.), mounted on a light-tight specimen chamber. Regions of interest were drawn around each mouse image, and flux was quantified and reported as 10^6 photons per second (p/s). For overall survival, animals were monitored individually to an endpoint of moribundity due to progression of systemic lymphoma. Full hind limb paralysis, severe ocular proptosis or moribundity all called for euthanasia.

[1] = 50 mg/kg BID oral, 7-day on/7-day off

Molecule `Cc1ncnc2c1ccn2[C@@H]1O[C@H]([C@H](O)c2ccc3c(c2)CC3)[C@@H](O)[C@H]1O` [Example 11, (2R,3S,4R,5R)-2-((R)-bicyclo[4.2.0]octa-1(6),2,4-trien-3-yl(hydroxy)methyl)-5-(4-methyl-7H-pyrrolo[2,3-d]pyrimidin-7-yl)tetrahydrofuran-3,4-diol] has a median survival (10 mg/kg BID oral) of 41 days, a tumor growth inhibition (10 mg/kg BID oral) of 10% and a median survival (20 mg/kg BID oral) of 37.5 days. It also gave a tumor growth inhibition (20 mg/kg BID oral) of 61%, a median survival [1] of 39 days and a tumor growth inhibition [1] of 85%.
